PMC5224880, “Discovery and Molecular Basis of a Diverse Set of Polycomb Repressive Complex 2 Inhibitors Recognition by EED” (PLoS ONE, 2017)

Experiments:
Format in all cases: biochemical
[1] = target: NSD1 (Homo sapiens, UniProt Q96L73); assay: HMT panel selectivity: NSD1
Protocol: (§1) Note: for EZH2, EZH2/EED/SUZ12/RBAP48/AEBP2 was used in the assay; for EZH1, EZH1/EED/SUZ12/RBAP48/AEBP2 was used in the assay; for MLL, MLL/WDR5/RBBP5/ASH2L/ was use in the assay. a, H3K27me0 peptide was used as substrate for both EZH2 and EZH1 activity; b, H3K27me1 peptide was used as substrate for both EZH2 and EZH1 activity. All HMT reactions were performed as described previously. ref: Proc Natl Acad Sci U S A. 2012 Dec 26;109(52):21360-5.

[2] = target: PRMT8 (Homo sapiens, UniProt Q9NR22); assay: HMT panel selectivity: PRMT8
Sequence of PRMT8 (Q9NR22 whole entry, species assumed): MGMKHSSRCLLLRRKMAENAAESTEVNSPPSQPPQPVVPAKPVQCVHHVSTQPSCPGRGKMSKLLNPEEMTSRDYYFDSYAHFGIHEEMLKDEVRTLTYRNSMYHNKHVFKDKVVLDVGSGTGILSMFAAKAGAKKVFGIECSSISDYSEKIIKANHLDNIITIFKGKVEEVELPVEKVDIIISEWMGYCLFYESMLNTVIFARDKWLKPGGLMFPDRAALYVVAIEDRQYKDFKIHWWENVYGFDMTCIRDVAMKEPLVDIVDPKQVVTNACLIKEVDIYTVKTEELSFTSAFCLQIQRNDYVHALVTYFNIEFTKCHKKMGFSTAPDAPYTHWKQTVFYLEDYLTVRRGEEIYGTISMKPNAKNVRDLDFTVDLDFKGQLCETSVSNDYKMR
Protocol: as §1

[3] = target: PRMT5/MEP50 (Homo sapiens, UniProt O14744); assay: HMT panel selectivity: PRMT5/MEP50
Protocol: as §1

[4] = target: DNMT1 (Homo sapiens, UniProt P26358); assay: HMT panel selectivity: DNMT1
Sequence of DNMT1 (P26358 whole entry, species assumed): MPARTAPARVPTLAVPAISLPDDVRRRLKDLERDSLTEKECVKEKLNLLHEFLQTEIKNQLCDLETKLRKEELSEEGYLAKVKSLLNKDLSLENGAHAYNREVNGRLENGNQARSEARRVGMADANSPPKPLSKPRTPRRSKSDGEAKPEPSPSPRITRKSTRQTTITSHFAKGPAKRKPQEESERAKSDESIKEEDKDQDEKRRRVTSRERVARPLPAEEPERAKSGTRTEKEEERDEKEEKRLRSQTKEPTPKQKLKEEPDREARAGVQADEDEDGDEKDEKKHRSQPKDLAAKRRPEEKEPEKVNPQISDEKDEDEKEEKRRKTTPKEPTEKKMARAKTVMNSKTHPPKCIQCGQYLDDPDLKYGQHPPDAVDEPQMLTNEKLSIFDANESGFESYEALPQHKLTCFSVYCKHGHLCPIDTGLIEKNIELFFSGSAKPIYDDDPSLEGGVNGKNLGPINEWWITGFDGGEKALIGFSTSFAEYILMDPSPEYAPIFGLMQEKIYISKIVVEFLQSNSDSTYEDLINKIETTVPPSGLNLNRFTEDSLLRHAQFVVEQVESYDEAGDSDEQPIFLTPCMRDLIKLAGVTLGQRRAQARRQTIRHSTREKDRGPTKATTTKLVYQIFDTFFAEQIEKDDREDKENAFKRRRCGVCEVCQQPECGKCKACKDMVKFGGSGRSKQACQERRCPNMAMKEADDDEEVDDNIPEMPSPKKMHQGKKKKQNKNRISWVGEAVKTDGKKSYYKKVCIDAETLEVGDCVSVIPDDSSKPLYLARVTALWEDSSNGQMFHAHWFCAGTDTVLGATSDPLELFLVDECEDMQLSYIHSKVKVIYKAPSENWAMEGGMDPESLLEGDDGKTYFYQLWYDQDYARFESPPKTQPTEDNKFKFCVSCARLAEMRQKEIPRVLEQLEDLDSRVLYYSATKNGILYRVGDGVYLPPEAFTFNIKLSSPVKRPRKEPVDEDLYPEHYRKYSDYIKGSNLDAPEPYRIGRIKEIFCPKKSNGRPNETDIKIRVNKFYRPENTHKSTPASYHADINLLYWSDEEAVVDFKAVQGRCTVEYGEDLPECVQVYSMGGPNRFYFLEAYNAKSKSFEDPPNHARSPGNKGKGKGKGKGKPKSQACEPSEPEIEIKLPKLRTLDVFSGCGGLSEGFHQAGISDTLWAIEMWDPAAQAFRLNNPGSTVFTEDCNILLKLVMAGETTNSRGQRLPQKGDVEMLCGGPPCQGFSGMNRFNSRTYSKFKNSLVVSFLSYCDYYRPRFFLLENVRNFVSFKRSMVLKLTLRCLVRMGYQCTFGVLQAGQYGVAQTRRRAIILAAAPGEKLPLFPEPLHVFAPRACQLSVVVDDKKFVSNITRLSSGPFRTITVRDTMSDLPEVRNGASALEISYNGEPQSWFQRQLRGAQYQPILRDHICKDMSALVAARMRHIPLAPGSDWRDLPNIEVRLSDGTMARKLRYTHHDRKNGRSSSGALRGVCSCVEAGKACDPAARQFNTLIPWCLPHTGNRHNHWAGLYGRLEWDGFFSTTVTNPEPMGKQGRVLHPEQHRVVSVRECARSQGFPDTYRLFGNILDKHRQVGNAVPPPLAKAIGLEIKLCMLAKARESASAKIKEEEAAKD
Protocol: as §1

[5] = target: T1, G9a (Homo sapiens, UniProt Q96KQ7); assay: HMT panel selectivity: G9a
T1 sequence (Q96KQ7 1-1210): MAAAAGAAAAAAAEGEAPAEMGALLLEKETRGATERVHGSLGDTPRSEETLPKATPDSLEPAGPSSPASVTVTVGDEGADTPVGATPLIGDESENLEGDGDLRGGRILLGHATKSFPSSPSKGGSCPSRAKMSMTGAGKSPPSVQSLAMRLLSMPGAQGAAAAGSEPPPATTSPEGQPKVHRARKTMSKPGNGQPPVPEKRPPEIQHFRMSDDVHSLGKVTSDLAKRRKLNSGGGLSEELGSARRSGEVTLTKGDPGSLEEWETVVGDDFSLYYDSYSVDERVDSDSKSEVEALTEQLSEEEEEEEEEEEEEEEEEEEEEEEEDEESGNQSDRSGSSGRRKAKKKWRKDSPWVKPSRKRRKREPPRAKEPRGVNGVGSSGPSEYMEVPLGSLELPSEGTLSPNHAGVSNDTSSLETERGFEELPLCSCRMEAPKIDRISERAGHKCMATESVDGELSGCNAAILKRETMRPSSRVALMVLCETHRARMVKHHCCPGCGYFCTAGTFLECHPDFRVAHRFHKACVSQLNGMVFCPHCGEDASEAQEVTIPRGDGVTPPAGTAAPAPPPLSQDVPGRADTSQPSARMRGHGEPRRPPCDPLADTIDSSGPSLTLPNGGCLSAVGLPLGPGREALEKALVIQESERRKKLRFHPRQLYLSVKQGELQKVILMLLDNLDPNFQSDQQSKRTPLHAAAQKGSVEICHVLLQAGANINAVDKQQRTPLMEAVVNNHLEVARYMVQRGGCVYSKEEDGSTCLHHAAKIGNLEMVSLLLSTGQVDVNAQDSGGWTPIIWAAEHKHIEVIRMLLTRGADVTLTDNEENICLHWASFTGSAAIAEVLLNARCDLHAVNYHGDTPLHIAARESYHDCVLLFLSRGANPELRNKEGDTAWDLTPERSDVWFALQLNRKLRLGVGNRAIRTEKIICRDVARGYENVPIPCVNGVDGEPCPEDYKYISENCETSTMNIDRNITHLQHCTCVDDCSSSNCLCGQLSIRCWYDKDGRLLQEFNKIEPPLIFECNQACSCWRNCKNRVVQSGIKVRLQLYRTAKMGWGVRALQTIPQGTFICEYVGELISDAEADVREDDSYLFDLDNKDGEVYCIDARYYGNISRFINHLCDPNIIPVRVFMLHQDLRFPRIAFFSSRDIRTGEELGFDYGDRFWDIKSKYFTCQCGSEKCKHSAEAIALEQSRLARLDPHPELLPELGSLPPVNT
Protocol: as §1

[6] = target: T2, SETD6 (Homo sapiens, UniProt Q8TBK2); assay: HMT panel selectivity: SETD6
T2 sequence (Q8TBK2 1-473): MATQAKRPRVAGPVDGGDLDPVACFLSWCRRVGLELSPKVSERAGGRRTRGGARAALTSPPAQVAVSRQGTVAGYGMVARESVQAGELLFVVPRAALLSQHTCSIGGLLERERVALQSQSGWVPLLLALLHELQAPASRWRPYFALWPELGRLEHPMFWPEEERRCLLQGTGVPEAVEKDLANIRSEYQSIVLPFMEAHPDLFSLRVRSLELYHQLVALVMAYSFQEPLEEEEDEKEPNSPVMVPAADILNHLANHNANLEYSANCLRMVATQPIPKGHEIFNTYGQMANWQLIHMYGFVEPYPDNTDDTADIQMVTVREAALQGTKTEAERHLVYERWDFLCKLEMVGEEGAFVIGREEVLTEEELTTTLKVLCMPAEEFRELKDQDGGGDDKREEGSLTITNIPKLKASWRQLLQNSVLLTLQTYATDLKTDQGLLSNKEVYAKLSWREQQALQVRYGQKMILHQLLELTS
Protocol: as §1

[7] = target: PRMT1 (Homo sapiens, UniProt Q99873); assay: HMT panel selectivity: PRMT1
Sequence of PRMT1 (Q99873 whole entry, species assumed): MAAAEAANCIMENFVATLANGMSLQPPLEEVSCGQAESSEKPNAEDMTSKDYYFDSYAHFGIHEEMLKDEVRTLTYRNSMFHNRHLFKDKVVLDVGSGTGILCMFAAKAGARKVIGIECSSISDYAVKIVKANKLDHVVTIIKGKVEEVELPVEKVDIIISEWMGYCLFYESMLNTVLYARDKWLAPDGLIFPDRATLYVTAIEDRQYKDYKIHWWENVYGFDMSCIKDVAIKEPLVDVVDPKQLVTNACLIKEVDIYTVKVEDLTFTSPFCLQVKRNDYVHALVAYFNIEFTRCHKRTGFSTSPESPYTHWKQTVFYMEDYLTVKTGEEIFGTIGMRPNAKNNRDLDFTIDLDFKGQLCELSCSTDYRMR
Protocol: as §1

[8] = target: SETD2 (Homo sapiens, UniProt Q9BYW2); assay: HMT panel selectivity: SETD2
Protocol: as §1

Measured: IC50

Sequence of NSD1 (Q96L73 whole entry, species assumed): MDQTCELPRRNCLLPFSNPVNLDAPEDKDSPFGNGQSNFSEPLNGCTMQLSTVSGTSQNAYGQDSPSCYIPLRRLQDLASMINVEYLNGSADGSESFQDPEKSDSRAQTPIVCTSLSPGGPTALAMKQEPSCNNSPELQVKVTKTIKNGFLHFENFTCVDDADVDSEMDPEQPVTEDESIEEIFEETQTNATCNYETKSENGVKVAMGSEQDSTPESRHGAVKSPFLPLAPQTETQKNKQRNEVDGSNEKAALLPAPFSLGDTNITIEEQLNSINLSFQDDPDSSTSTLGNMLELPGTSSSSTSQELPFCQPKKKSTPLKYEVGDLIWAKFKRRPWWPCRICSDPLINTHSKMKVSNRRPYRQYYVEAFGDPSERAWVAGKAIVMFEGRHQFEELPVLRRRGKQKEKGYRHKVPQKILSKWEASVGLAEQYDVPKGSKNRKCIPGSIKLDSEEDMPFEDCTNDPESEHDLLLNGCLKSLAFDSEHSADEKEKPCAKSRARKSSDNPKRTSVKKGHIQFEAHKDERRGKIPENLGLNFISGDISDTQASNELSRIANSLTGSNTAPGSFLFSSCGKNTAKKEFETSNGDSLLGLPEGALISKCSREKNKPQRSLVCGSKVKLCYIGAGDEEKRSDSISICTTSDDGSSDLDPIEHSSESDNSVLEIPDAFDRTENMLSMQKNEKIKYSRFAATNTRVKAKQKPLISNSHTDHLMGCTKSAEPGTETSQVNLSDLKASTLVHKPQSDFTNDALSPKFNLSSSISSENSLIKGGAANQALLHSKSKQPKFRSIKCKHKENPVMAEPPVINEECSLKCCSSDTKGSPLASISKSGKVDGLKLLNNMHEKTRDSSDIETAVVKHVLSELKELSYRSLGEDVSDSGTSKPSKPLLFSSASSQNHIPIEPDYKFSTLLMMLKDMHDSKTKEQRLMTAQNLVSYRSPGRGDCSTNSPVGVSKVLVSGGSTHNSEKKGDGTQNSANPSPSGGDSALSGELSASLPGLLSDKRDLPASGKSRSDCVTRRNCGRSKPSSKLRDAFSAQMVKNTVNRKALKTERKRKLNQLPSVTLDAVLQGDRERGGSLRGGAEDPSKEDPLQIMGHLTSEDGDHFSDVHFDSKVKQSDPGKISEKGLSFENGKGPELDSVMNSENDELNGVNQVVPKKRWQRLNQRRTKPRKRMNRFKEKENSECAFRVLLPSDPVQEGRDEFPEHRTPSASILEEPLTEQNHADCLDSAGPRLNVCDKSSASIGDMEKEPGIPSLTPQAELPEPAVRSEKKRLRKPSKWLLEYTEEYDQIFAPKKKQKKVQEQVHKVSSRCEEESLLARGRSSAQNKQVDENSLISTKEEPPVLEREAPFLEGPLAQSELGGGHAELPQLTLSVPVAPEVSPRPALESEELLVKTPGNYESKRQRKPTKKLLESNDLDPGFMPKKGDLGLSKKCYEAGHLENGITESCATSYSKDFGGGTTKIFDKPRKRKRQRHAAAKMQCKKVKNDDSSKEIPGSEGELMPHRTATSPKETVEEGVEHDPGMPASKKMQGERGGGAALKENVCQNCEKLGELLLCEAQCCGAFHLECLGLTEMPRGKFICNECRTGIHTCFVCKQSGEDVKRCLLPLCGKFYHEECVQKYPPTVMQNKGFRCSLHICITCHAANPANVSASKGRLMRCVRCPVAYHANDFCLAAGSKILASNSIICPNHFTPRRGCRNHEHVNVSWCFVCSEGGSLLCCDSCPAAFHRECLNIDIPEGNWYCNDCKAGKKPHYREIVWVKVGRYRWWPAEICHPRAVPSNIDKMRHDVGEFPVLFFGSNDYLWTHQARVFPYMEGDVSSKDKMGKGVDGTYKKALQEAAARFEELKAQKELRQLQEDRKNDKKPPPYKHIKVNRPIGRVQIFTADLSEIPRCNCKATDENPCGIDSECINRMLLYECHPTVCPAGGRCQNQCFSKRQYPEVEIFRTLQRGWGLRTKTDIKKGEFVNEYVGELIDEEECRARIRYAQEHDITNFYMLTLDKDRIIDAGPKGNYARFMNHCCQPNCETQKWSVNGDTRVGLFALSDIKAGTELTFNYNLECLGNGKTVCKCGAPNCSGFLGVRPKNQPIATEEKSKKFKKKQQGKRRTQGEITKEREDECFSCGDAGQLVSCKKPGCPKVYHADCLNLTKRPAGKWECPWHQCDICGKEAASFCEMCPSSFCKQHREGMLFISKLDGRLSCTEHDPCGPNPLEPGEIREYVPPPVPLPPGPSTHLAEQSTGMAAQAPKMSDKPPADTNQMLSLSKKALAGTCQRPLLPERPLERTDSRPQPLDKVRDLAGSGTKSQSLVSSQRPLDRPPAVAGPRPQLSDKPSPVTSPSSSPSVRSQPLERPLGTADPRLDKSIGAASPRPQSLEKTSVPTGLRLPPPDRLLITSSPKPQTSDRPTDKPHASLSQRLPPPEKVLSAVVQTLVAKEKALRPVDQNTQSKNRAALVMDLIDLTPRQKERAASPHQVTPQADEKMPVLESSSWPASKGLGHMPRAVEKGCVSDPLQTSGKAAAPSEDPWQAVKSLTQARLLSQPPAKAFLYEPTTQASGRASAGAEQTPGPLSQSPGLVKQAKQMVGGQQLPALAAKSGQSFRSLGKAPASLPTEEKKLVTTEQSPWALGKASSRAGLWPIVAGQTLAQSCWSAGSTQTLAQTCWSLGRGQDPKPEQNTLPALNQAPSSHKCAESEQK

N#Cc1c2c(c3nncn3c1NCc1ccco1)CN(Cc1ccccc1)CC2 [EED162]
> 100 µM: all assays above

COc1cccc(CC2CC3Cc4c(cccc4OC)CC3N(C)C2)c1 (stereo not shown) [EED210]
> 100 µM: all assays above

COc1cc(-c2cc3n(c(=N)c2C#N)CCc2cc4c(cc2-3)OCO4)ccc1OC(C)C [EED396]
> 100 µM: all assays above

Cc1cc(C)n(-c2cc(N3CCc4ccccc4C3)ccc2[N+](=O)[O-])n1 [EED666]
> 100 µM: all assays above

COc1ccccc1CN1CC(c2cn(C)c3ccccc23)C(N(C)C)C1 (stereo not shown) [EED709]
> 100 µM: all assays above
